This assay addresses recombinant full length HPK-1 enzyme (Homo sapiens (Human), UniProt Q92918). The assay is described as follows: HPK-1 biochemical enzyme assay (ADP-Glo kinase inhibition). To be noted: recombinant full length HPK-1 6.8 nM, 10 μM ATP, 12.5 μM MBP, 30 mins at 25° C. In outline:
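ADP-Glo readout of ADP formed after a 30 min, 25° C. reaction of 6.8 nM full-length HPK-1 with swine myelin basic protein (12.5 μM) and ATP (10 μM) in Tris pH 7.4 buffer with MgCl2, DTT and BSA. Ten compound concentrations tested; percent inhibition set against vehicle (0%) and no-enzyme (100%) controls gave IC50.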
A general note: ADP-Glo first removes unused ATP, then detects ADP through luciferase.

Some results are limits rather than exact numbers.

Chain of recombinant full length HPK-1 enzyme (Q92918 whole entry, species assumed): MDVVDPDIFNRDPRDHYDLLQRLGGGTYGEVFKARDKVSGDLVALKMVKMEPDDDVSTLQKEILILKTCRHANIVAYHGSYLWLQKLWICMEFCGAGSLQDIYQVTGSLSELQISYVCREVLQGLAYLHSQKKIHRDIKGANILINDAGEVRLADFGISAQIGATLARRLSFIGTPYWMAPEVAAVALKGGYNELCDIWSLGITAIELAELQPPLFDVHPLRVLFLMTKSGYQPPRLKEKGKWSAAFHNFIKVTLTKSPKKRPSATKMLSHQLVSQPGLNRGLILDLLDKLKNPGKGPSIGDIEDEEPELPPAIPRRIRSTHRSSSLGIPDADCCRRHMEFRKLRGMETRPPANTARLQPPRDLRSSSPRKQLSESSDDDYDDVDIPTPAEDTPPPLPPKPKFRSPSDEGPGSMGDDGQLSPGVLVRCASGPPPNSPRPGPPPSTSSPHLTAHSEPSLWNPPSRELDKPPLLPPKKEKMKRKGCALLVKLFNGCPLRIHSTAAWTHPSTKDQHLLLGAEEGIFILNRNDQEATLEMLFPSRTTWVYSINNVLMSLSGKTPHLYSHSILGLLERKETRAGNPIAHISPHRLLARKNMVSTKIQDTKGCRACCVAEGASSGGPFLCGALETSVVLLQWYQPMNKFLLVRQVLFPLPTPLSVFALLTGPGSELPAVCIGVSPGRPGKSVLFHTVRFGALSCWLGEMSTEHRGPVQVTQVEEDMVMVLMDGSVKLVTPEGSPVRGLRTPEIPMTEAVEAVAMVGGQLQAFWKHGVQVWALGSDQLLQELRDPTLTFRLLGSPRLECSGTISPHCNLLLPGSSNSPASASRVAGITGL

Usually IC50 stands for the midpoint of a concentration-inhibition curve. For the molecule `Cc1c(Nc2cc[nH]c(=O)c2C(=O)Nc2ccc(N3CCN(C)CC3)c(C(=O)N(C)C)c2)cnc2c1NCCO2` [Example 208, N-(3-(dimethylcarbamoyl)-4-(4-methylpiperazin-1-yl)phenyl)-4-((8-methyl-2,3-dihydro-1H-pyrido[2,3-b][1,4]oxazin-7-yl)amino)-2-oxo-1,2-dihydropyridine-3-carboxamide], the IC50 is 100 to 1000 nM.
To `Cc1c(Nc2cc[nH]c(=O)c2C(=O)Nc2ccc(N3CCC(O)C3)cc2)cnc2c1NCCO2` (stereo not shown) [Example 398, N-(4-(3-hydroxypyrrolidin-1-yl)phenyl)-4-((8-methyl-2,3-dihydro-1H-pyrido[2,3-b][1,4]oxazin-7-yl)amino)-2-oxo-1,2-dihydropyridine-3-carboxamide] belongs 10 to 100 nM; to `Cc1c(Nc2cc[nH]c(=O)c2C(=O)Nc2ccc(N3CCN(C(=O)c4ccn[nH]4)CC3)cc2)cnc2c1NCCO2` [Example 303, N-(4-(4-(1H-pyrazole-5-carbonyl)piperazin-1-yl)phenyl)-4-((8-methyl-2,3-dihydro-1H-pyrido[2,3-b][1,4]oxazin-7-yl)amino)-2-oxo-1,2-dihydropyridine-3-carboxamide], no more than 10 nM.
The value for `Cc1c(Nc2cc[nH]c(=O)c2C(=O)Nc2ccc(N3CCS(=O)(=O)CC3)cc2)cnc2c1NCCO2` [Example 138, N-(4-(1,1-dioxidothiomorpholino)phenyl)-4-((8-methyl-2,3-dihydro-1H-pyrido[2,3-b][1,4]oxazin-7-yl)amino)-2-oxo-1,2-dihydropyridine-3-carboxamide] was no more than 10 nM; that for `Cc1c(Nc2cc[nH]c(=O)c2C(=O)Nc2ccc(N3CCN(C)CC3=O)cc2)cnc2c1NCCO2` [Example 267, 4-((8-methyl-2,3-dihydro-1H-pyrido[2,3-b][1,4]oxazin-7-yl)amino)-N-(4-(4-methyl-2-oxopiperazin-1-yl)phenyl)-2-oxo-1,2-dihydropyridine-3-carboxamide] was 10 to 100 nM.
The value for `Cc1c(Nc2cc[nH]c(=O)c2C(=O)Nc2ccc(-c3ccccn3)cc2)cnc2c1NCCO2` [Example 130, 4-((8-methyl-2,3-dihydro-1H-pyrido[2,3-b][1,4]oxazin-7-yl)amino)-2-oxo-N-(4-(pyridin-2-yl)phenyl)-1,2-dihydropyridine-3-carboxamide] was 10 to 100 nM; that for `Cc1nc2cc(NC(=O)c3c(Nc4cnc5c(c4C)NCCO5)cc[nH]c3=O)ccc2[nH]1` [Example 224, N-(2-methyl-1H-benzo[d]imidazol-5-yl)-4-((8-methyl-2,3-dihydro-1H-pyrido[2,3-b][1,4]oxazin-7-yl)amino)-2-oxo-1,2-dihydropyridine-3-carboxamide] was 10 to 100 nM; that for `Cc1ncccc1N1CCN(c2ccc(NC(=O)c3c(Nc4cnc5c(c4C)NCCO5)cc[nH]c3=O)cc2)CC1` [Example 337, 4-((8-methyl-2,3-dihydro-1H-pyrido[2,3-b][1,4]oxazin-7-yl)amino)-N-(4-(4-(2-methylpyridin-3-yl)piperazin-1-yl)phenyl)-2-oxo-1,2-dihydropyridine-3-carboxamide] was no more than 10 nM.
Take `Cc1c(Nc2cc[nH]c(=O)c2C(=O)Nc2ccc(N3CCN4C(=O)CCCC4C3)cc2)cnc2c1NCCO2` (stereo not shown) [Example 374, 4-((8-methyl-2,3-dihydro-1H-pyrido[2,3-b][1,4]oxazin-7-yl)amino)-2-oxo-N-(4-(6-oxooctahydro-2H-pyrido[1,2-a]pyrazin-2-yl)phenyl)-1,2-dihydropyridine-3-carboxamide]: the IC50 lay in the range of 10 to 100 nM.
To `Cc1c(Nc2cc[nH]c(=O)c2C(=O)Nc2ccc(N3CCN(C(=O)N4CC(C)(C)C4)CC3)cc2)cnc2c1NCCO2` [Example 317, N-(4-(4-(3,3-dimethylazetidine-1-carbonyl)piperazin-1-yl)phenyl)-4-((8-methyl-2,3-dihydro-1H-pyrido[2,3-b][1,4]oxazin-7-yl)amino)-2-oxo-1,2-dihydropyridine-3-carboxamide] belongs no more than 10 nM.

The values are drawn from patent US20250282794A1 (CURADEV PHARMA LTD, priority 2022, published 2025).
